Results taken from US5340806A, “Composition containing organogermanium compound and immunity adjusting agent comprising the composition” (Sanwa Kagaku Kenkyusho Co., Ltd., priority 1984, dated 1994).
Where two headings read alike, the source gives them in different places.

Legend:
[1] = tested on: spleen cells (PFC), Sarcoma 180 cancered mice; assay: Antibody production ability in cancered mouse (spleen cell PFC); format: in vivo, ICR male mice; conditions: oral for 5 days, depending on dosing amount; FIG. 9
Description: 2×10^6 cells of a mouse tumor cell (Sarcoma 180) were implanted under the skin of a side part of ICR male mice to form a solid cancer. The organogermanium compound (Compound No. 1 in Table 1) dissolved in 4% cattle serum albumin solution was orally dosed to the cancered mice for 5 days, after 9 days had elapsed from the implantation, 2×10^8 corpuscles of SRBC were injected in a tail vein of the mice for sensitization. After 4 days from the sensitization, spleen cells were extracted to measure of PFC therein, which was used as an index of the antibody productivity.

[2] = tested on: HIV (Human Immunodeficiency Virus); format: in vivo; conditions: for OKT4/8 ratio: before 0.36±0.03; for OKT4-value: before 463±64/μl
Description: Effects of the organogermanium compound are checked by giving the capsule obtained in Pharmaceutical Composition Preparing Example 7 to 6 patients infected by HIV (Human Immunodeficiency Virus), who are male hemophiliacs (Age: 6 to 22 years old) recognized as asymptomatic carriers, and among them 5 patients were positive to HIV and 1 patient was negative to HIV.
To each patient, the capsule was given in a dose of 80 mg/day for the patients of 10 years old or over and 40 mg/1 day for the patients less than 10 years old, for 9 months. The number of blood lymphocytes, OKT4 -value, OKT8 -value and OKT4/8 ratio, as well as the change in the virus marker (HIV, HIV antigen and HIV antibody) in blood of the patients were monitored. The separation of the HIV was carried out in accordance with the CDC (Communicable Disease Center) method, and the measurement of the HIV antigen was carried out using the Western blotting method.

LD50 for beagle dog = conditions: in vivo
[3] = tested on: chronic non A non B hepatitis; assay: Chronic non A non B hepatitis, 15/30/60 mg/day, 12 weeks (Table 5B); format: in vivo, human patients
Description: Search on utility or effectiveness of the organogermanium compound on patients who are infected with chronic B hepatitis, or with non A non B hepatitis, and show "positive" to HBe antigen as well as a preferable amount of dose thereof.
The amount of dose has been set as follows, by taking the results given in In Vivo Utilization Example 1 into consideration.
(a) 60 mg/day/body showing most preferable data in effectiveness,
(b) 30 mg/day/body showing effectiveness in some Experiments, and
(c) 15 mg/day/body (for taking control data).
Experimental period of time was set for 12 weeks.
(a) Examination of liver functions (GOT, GPT, total bilirubin, LDH, y-GTP, and y-globulin), and
(b) Examination with use of HBV marker (HBe-Ag).

chronic B hepatitis = assay: Chronic B hepatitis, 16 weeks, 30 mg/day/body (In Vivo Utilization Example 5); set-up: species or system human patients
[4] = tested on: chronic non A non B hepatitis; assay: Long term dosing in chronic non A non B hepatitis (In Vivo Utilization Example 6); set-up: species or system human patients; conditions: for Liver tissue improvement: Ballooning of cell: 4 patients; for Liver tissue improvement: Moderation of lobule: 8 patients; for Liver tissue improvement: Fatty degeneration: 9 patients; for Glisson's capsule improvement: Piecemeal necrosis: 13 patients; for Liver tissue improvement: Mobilization image of Kupfer cell: 16 patients; for Glisson's capsule improvement: Fibrosis / Glisson's capsule improvement: Round cell infiltration / Liver tissue improvement: Cobwebby necrosis / Liver tissue improvement: Degenerative necrosis in cell: 17 patients
Description: A capsule containing the organogermanium compound was dosed to patients infected with chronic non A non B hepatitis over a long period of time to check safety and effectiveness of the organogermanium compound.
(a) Number of patients for analyzation: 68 persons.
Group A: 39 persons (dose; 30 mg/day/body), and
Group B: 29 persons (dose; 60 mg/day/body).
(b) Mean dosing period of time
(c) Number of patients who continuously dose over 48 weeks

[5] = 30 mg/day, patients of total 35
[6] = 60 mg/day, patients of total 26

## 3-oxygermylpropionic acid [Compound No. 1]
[1]
  ability to produce antibodies (PFC): the ability to produce antibodies recovers towards a normal level
[2]; 9 months
  side-effect in clinical observation: did not show any side-effect
[2]; after 1 month
  OKT4/8 ratio: 0.42±0.02
[2]; after 2 months
  OKT4-value: 549 ± 89 µL⁻¹
[2]; after 3 months
  OKT4/8 ratio: 0.51±0.06
[2]; after 6 months
  OKT4/8 ratio: 0.54±0.05
  OKT4-value: 629 ± 97 µL⁻¹
[2]; after 6 months, before 1303±174/μl
  OKT8-value: 1154 ± 153 µL⁻¹
[2]; after 6 months, before 2430±311/μl
  number of lymphocytes: 2349 ± 312 µL⁻¹
[2]; among 5 HIV positive patients, dosage over 6 months
  HIV disappeared (persons): 3 persons
[2]; among 5 HIV positive patients, over 9 months
  no change in virus marker (persons): 2 persons
[2]; human, in vivo
  change in OKT4-value: a certain increasing tendency
  change in OKT4/8 ratio: a slow increase in the ratio
  change in OKT8-value: a certain decreasing tendency
  change in number of lymphocytes: No noticeable change
  some increase in appetite and body weight (persons): 2 persons
LD50 for beagle dog
  15 mg/body as fraction of LD50 for beagle dog: 1/12000
[3]; 15 mg/day
  Effectiveness (slight or more): 33%
  General judgement: Improvement (slight or more): 36%
  Safety (quite): 91%
  Side effect: 9.4%
[3]; 15 mg/day, 12 weeks
  Total bilirubin change: .dwnarw. *
  γ-GPT change: .dwnarw. +
[3]; 30 mg/day
  Effectiveness (slight or more): 36%
  General judgement: Improvement (slight or more): 37%
  Safety (quite): 94%
  Side effect: 5.6%
[3]; 60 mg/day
  Effectiveness (slight or more): 55%
  General judgement: Improvement (slight or more): 57%
  Safety (quite): 95%
  Side effect: 5.4%
[3]; 60 mg/day, 12 weeks
  GOT change: .dwnarw. *
  GPT change: .dwnarw. **
  Total bilirubin change: .dwnarw. *
  γ-GPT change: .dwnarw. *
  γ-Globulin change: .dwnarw. *
Chronic B hepatitis; Two-color analysis
  suppressor T lymph cell and other CD8 positive cells: A significant reduction
Chronic B hepatitis; after 8 and 12 weeks
  HBe antigen: A significant reduction of HBe antigen
Chronic B hepatitis; after 8 weeks
  HBe antibody: Significant increase of HBe antibody
Chronic B hepatitis; among 33 HBe antigen positive
  patients changed to SC: 2 Patients
Chronic B hepatitis; end of experiment, 4 patients
  patients changed from positive to negative DNA-polymerase: 14%
Chronic B hepatitis; in vivo
  improvement in liver functions, HBe antigen positive versus negative groups: no significant difference
Chronic B hepatitis; middle or more
  ratio of improvement in functions of liver: 30%
Chronic B hepatitis; slight or more
  ratio of improvement in functions of liver: 50%
[4]; 30 mg/day
  Ratio of improvement: Middle or more: 11.4%
  Ratio of improvement: Slight or more: 26.9%
[4]; [5]
  Getting worse (functions of liver): 3
  Middle improved (functions of liver): 2
  No change (functions of liver): 20
  Remarkably improved (functions of liver): 2
[4]; 60 mg/day
  Ratio of improvement: Middle or more: 34.3%
  Ratio of improvement: Slight or more: 57.7%
[4]; [6]
  Getting worse (functions of liver): 0
  Middle improved (functions of liver): 4
  No change (functions of liver): 11
  Remarkably improved (functions of liver): 3
[4]; ≥middle, 1/17
  Liver tissue improvement: Evaluation: 5.9%
[4]; ≥middle, 3 patients
  Liver tissue improvement: Bridging necrosis: 0%
[4]; ≥middle
  Liver tissue improvement: Ballooning of cell: 0%
  Liver tissue improvement: Moderation of lobule: 0%
  Liver tissue improvement: Fatty degeneration: 0%
  Glisson's capsule improvement: Piecemeal necrosis: 0%
  Liver tissue improvement: Mobilization image of Kupfer cell: 6.3%
  Glisson's capsule improvement: Fibrosis: 0%
  Glisson's capsule improvement: Round cell infiltration: 0%
  Liver tissue improvement: Cobwebby necrosis: 5.9%
  Liver tissue improvement: Degenerative necrosis in cell: 5.9%
[4]; ≥slight
  Liver tissue improvement: Ballooning of cell: 0. %
  Liver tissue improvement: Moderation of lobule: 12.5%
  Liver tissue improvement: Fatty degeneration: 22.2%
  Glisson's capsule improvement: Piecemeal necrosis: 38.5%
  Liver tissue improvement: Mobilization image of Kupfer cell: 50.0%
  Glisson's capsule improvement: Fibrosis: 5.9%
  Glisson's capsule improvement: Round cell infiltration: 17.6%
  Liver tissue improvement: Cobwebby necrosis: 52.9%
  Liver tissue improvement: Degenerative necrosis in cell: 52.9%
[4]; ≥slight, 10/17
  Liver tissue improvement: Evaluation: 58.8%
Control composition (water)
  modification or decomposition in contact with water: a modification or decomposition occurs
control: water in lieu of serum albumin, 25° C
  lapsed time at which disturbance in the absorption spectrum was first observed: 24 h
control: water, after 60 hours
  disturbance in the absorption spectrum: the disturbance was further increased
